Values of other authors in patent US5554621A, “Dihydropyridine NPY antagonists: nitrogen heterocyclic derivatives” (Bristol-Myers Squibb Company, priority 1995, dated 1996).
Each block holds one compound with its values, some of them ahead of it.

How the values were obtained:
[1] = tested on: NPY-induced contractions in guinea pig basilar artery
[2] = tested on: rat femoral artery
[3] = target: T1, Y2 receptor (Rattus norvegicus, UniProt Q9ERC0); conditions: functional selectivity for Y2 receptor
T1 sequence (Q9ERC0 1-381): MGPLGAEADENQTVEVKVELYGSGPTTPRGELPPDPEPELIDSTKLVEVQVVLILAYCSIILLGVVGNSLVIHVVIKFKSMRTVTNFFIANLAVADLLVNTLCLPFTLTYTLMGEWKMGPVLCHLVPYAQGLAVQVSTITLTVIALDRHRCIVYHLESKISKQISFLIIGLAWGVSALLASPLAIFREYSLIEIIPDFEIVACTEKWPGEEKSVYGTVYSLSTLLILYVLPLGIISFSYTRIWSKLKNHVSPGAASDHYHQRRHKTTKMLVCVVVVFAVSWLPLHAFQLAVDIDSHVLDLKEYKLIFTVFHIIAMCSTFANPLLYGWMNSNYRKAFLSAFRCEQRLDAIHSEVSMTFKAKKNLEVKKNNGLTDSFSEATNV

[4] = target: T2, NPY1 (Rattus norvegicus, UniProt P21555)
T2 construct: vasoconstrictive activity of the NPY1 agonist
T2 sequence (P21555 1-382): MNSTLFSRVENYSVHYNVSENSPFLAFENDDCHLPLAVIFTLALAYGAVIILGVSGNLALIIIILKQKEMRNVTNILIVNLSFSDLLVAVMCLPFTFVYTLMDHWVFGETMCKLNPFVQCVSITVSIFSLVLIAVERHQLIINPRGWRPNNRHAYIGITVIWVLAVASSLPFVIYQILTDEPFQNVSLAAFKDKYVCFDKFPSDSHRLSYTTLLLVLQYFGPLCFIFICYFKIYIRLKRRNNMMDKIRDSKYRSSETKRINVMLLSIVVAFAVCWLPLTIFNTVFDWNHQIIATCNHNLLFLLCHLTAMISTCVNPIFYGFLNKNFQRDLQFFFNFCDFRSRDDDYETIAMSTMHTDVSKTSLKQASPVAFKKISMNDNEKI

[5] = tested on: 3H-NPY in rat brain; conditions: read-out: IC50 (displacement of 3H-NPY)
[6] = tested on: NPY-induced pressor response; conditions: pithed rat
[7] = tested on: NPY-induced increase in intracellular Ca++ in SK-N-Mc cells
[8] = tested on: I-125 labeled NPY and PYY in human neuroblastoma cells
[9] = tested on: NPY-related increases in diastolic blood pressure; conditions: anesthetized guinea pig

SMILES: O=P(O)(O)O[C@@H]1[C@H](OP(=O)(O)O)[C@H](O)[C@@H](O)[C@H](O)[C@H]1OP(=O)(O)O [D-Myo-inositol-1,2,6-triphosphate]
Antagonism of NPY-induced contractions [1]: potent but non-competitive antagonist

Effect against NPY2 agonist NPY13-36 [3]: antagonized the effect
Effect on vasoconstrictive activity of NPY1 agonist [Leu31, Pro34]NPY [4]: no effect
IC50 [5]: 18.4 µM
SMILES: N=C(N)N(CCCCCCNCc1ccc2ccccc2c1)CCCCCCN(CCCCCCNCc1ccc2ccccc2c1)C(=N)N [Example 6b]
Functional antagonism [2]: functional antagonism

SMILES: N=C(N)NCCC[C@@H](NC(=O)C(c1ccccc1)c1ccccc1)C(=O)NCc1ccc(O)cc1 [BIBP 3226]
Antagonism of NPY-induced pressor response [6]: antagonizing
Antagonism of NPY-induced increase in intracellular Ca++ [7]: antagonized

SMILES: CN(C)CC1CCC(CNC(=N)c2ccc(CC(NC(=O)C(Cc3ccccc3)NS(=O)(=O)c3ccc4ccccc4c3)C(=O)N3CCCC3)cc2)CC1 (stereo not drawn) [SR 120819A]
Displacement of I-125 labeled NPY and PYY [8]: displacing
Antagonism of NPY-related increases in diastolic blood pressure [9]: antagonized
